In assay [1] the target is T1, c-Met (cytoplasmic domain) (Homo sapiens, UniProt P08581).
T1 construct: 10 ng/mL c-Met (cytoplasmic domain, Invitrogen Corporation #PV3143); purchased Invitrogen Corporation PV3143
The assay can be described thus: c-Met Kinase Assay (same methods as for ALK, with modifications). It is filed as biochemical. To be noted: c-Met kinase inhibition, 1 μM ATP; read-out: cMet Activity. A digest of the protocol: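 This plate-based kinase format uses immobilized phospholipase C-γ as substrate, phosphorylated by c-Met cytoplasmic domain (10 ng/mL) at 37° C for 15 minutes.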

The target in assay [2] is T2, baculovirus-expressed ALK (Homo sapiens, UniProt Q9UM73).
T2 construct: host or cells: baculovirus expression system
T2 sequence (Q9UM73 19-1620): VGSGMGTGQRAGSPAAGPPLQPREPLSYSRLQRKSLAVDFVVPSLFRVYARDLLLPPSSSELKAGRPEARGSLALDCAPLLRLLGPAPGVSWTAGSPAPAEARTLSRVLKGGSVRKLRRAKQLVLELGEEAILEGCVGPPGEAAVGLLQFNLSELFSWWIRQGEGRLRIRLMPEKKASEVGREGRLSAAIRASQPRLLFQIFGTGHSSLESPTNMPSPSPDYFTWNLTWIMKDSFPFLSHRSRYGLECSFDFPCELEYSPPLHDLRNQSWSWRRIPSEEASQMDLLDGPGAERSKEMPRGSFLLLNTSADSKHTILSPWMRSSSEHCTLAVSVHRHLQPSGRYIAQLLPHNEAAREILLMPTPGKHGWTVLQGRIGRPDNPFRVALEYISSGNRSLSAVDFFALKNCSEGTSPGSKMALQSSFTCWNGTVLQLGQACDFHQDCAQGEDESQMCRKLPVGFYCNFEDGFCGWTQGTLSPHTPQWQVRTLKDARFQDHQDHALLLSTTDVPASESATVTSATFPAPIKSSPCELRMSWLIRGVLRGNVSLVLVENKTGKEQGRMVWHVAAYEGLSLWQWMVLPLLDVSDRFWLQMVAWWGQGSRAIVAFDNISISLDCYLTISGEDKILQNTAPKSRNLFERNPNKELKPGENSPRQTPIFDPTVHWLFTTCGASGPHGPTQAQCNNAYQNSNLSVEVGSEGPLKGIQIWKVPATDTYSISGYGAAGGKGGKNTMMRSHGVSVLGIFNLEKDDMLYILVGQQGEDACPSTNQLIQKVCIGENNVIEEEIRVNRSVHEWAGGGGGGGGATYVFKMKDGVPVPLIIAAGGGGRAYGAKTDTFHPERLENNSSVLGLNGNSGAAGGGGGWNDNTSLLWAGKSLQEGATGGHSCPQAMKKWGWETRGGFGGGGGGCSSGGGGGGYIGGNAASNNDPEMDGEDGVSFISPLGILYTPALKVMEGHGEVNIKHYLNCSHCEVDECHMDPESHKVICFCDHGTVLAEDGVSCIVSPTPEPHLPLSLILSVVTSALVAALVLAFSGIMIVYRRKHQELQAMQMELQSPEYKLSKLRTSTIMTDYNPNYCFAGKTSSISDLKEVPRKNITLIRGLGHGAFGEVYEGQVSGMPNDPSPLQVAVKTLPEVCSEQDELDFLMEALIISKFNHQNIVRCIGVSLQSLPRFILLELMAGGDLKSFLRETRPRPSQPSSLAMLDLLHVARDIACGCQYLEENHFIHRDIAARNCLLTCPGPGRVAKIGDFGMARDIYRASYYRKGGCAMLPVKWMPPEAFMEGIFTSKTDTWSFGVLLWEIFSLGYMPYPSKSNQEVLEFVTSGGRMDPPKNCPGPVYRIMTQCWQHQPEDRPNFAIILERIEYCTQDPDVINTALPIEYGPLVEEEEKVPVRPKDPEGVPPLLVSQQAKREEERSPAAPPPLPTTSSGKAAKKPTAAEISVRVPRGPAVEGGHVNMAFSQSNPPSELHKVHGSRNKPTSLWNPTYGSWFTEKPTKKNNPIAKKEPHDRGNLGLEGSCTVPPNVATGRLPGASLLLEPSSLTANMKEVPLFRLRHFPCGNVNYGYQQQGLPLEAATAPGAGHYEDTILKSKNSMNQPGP
The assay can be described thus: ALK Kinase Assay (ELISA-type, time-resolved fluorescence). In kind it is biochemical. To be noted: ALK kinase inhibition, 1 μM ATP; read-out: ALK Activity. An outline of the steps:
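Substrate coating: phospholipase C-γ, 10 μg/mL in TBS. Kinase step: 30 ng/ml ALK, 15 min, 37° C. Detection and analysis: Eu-N1 PT66 antibody, with IC50 fitted as a sigmoidal variable-slope dose-response curve.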
(ELISA stands for enzyme-linked immunosorbent assay.)

T1 sequence (P08581 956-1390 limits assumed): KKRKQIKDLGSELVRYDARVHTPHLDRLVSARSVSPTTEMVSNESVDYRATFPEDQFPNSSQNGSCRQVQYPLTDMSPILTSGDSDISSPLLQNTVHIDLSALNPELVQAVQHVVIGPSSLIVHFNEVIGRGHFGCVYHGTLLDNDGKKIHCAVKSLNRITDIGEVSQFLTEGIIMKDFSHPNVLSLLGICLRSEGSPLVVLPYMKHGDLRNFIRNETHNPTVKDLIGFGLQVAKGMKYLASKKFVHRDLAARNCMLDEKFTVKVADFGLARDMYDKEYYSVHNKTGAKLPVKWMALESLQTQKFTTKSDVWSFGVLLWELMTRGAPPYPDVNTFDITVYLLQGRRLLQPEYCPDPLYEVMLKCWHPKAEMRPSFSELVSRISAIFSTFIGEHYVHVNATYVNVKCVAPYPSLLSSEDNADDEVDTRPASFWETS

Turning to `COc1cc2c(cc1Nc1ncc(Cl)c(N[C@@H]3CCCC[C@H]3NS(C)(=O)=O)n1)NC(=O)CN(CC1CC1)C2` [Example 1666, N-(1R,2R)-{2-[5-Chloro-2-(4-cyclopropylmethyl-7-methoxy-2-oxo-2,3,4,5-tetrahydro-1H-benzo[e][1,4]diazepin-8-ylamino)-pyrimidin-4-ylamino]-cyclohexyl}-methanesulfonamide], the IC50 in assay [1] was above 10000 nM; in assay [2], below 100 nM.
In the same order, the values of `COc1cc2c(cc1Nc1ncc(Cl)c(N[C@H]3[C@@H](C(N)=O)[C@@H]4C=C[C@H]3C4)n1)NC(=O)CN(CC1CC1)C2` [Example 1667, (1S,2S,3R,4R)-3-[5-Chloro-2-(4-cyclopropylmethyl-7-methoxy-2-oxo-2,3,4,5-tetrahydro-1H-benzo[e][1,4]diazepin-8-ylamino)-pyrimidin-4-ylamino]-bicyclo[2.2.1]hept-5-ene-2-carboxylic acid amide] are above 10000 nM and below 100 nM.
As to `COc1cc2c(cc1Nc1ncc(Cl)c(Nc3ccccc3S(=O)(=O)N3CCCC3)n1)NC(=O)CN(CC1CC1)C2` [Example 1668, 8-{5-Chloro-4-[2-(pyrrolidine-1-sulfonyl)-phenylamino]-pyrimidin-2-ylamino}-4-cyclopropylmethyl-7-methoxy-1,3,4,5-tetrahydro-benzo[e][1,4]diazepin-2-one], the results for the IC50 in assay [1] and in assay [2] were 1000 to 10000 nM and below 100 nM, respectively.
In the same order, the values of `CNC(=O)c1ccccc1Nc1nc(Nc2cc3c(cc2OC)NC(=O)CCC3(C)C)ncc1Cl` [Example 1671, 2-[5-Chloro-2-(8-methoxy-5,5-dimethyl-2-oxo-2,3,4,5-tetrahydro-1H-benzo[b]azepin-7-ylamino)-pyrimidin-4-ylamino]-N-methyl-benzamide] are 1000 to 10000 nM and below 100 nM.
Consider `COc1cc2c(cc1Nc1ncc(Cl)c(Nc3ccc(N4CCOCC4)cc3OC)n1)C(C)(C)CCC(=O)N2` [Example 1672, 7-[5-Chloro-4-(2-methoxy-4-morpholin-4-yl-phenylamino)-pyrimidin-2-ylamino]-8-methoxy-5,5-dimethyl-1,3,4,5-tetrahydro-benzo[b]azepin-2-one], for which the values for the IC50 in assay [1] and in assay [2] were above 10000 nM and 100 to 1000 nM, respectively.
For the compound `COc1cc2c(cc1Nc1ncc(Cl)c(N[C@H]3[C@@H](C(N)=O)[C@@H]4C=C[C@H]3C4)n1)CCN(C[C@H](O)C(F)(F)F)CC2` [Example 1673, (1S,2S,3R,4R)-3-{5-Chloro-2-[8-methoxy-3-((S)-3,3,3-trifluoro-2-hydroxy-propyl)-2,3,4,5-tetrahydro-1H-benzo[d]azepin-7-ylamino]-pyrimidin-4-ylamino}-bicyclo[2.2.1]hept-5-ene-2-carboxylic acid amide], the IC50 in assay [1] is above 10000 nM; in assay [2], below 100 nM.
With `CN([C@@H]1CCCC[C@H]1Nc1nc(Nc2ccc3c(c2)C(C)(C)CCC(=O)N3)ncc1Cl)S(C)(=O)=O` [Example 1674, N-{(1R,2R)-2-[5-Chloro-2-(5,5-dimethyl-2-oxo-2,3,4,5-tetrahydro-1H-benzo[b]azepin-7-ylamino)-pyrimidin-4-ylamino]-cyclohexyl}-N-methyl-methanesulfonamide], the results for the IC50 in assay [1] and in assay [2] were 1000 to 10000 nM and below 100 nM, respectively.
As to `CCN([C@@H]1CCCC[C@H]1Nc1nc(Nc2ccc3c(c2)C(C)(C)CCC(=O)N3)ncc1Cl)S(C)(=O)=O` [Example 1675, N-{(1R,2R)-2-[5-Chloro-2-(5,5-dimethyl-2-oxo-2,3,4,5-tetrahydro-1H-benzo[b]azepin-7-ylamino)-pyrimidin-4-ylamino]-cyclohexyl}-N-ethyl-methanesulfonamide], the values for the IC50 in assay [1] and in assay [2] were 1000 to 10000 nM and below 100 nM, respectively.
In the same order, the values of `COCCN1CCc2cc(Nc3ncc(Cl)c(N[C@@H]4CCCC[C@H]4N(C)S(C)(=O)=O)n3)c(OC)cc2CC1` [Example 1676, N-((1R,2R)-2-{5-Chloro-2-[8-methoxy-3-(2-methoxy-ethyl)-2,3,4,5-tetrahydro-1H-benzo[d]azepin-7-ylamino]-pyrimidin-4-ylamino}-cyclohexyl)-N-methyl-methanesulfonamide] are above 10000 nM and below 100 nM.
With `CCN([C@@H]1CCCC[C@H]1Nc1nc(Nc2cc3c(cc2OC)CCN(CCOC)CC3)ncc1Cl)S(C)(=O)=O` [Example 1677, N-((1R,2R)-2-{5-Chloro-2-[8-methoxy-3-(2-methoxy-ethyl)-2,3,4,5-tetrahydro-1H-benzo[d]azepin-7-ylamino]-pyrimidin-4-ylamino}-cyclohexyl)-N-ethyl-methanesulfonamide], the IC50 in assay [1] was above 10000 nM; in assay [2], below 100 nM.
In the same order, the values of `CCN1C(=O)CCCc2cc(Nc3ncc(Cl)c(N[C@@H]4CCCC[C@H]4N(C)S(C)(=O)=O)n3)c(OC)cc21` [Example 1678, N-{(1R,2R)-2-[5-Chloro-2-(1-ethyl-8-methoxy-2-oxo-2,3,4,5-tetrahydro-1H-benzo[b]azepin-7-ylamino)-pyrimidin-4-ylamino]-cyclohexyl}-N-methyl-methanesulfonamide] are 1000 to 10000 nM and below 100 nM.
On the same counts, the results for `CCN1C(=O)CCCc2c1ccc(Nc1ncc(Cl)c(N[C@@H]3CCCC[C@H]3N(C)S(C)(=O)=O)n1)c2OC` [Example 1679, N-{(1R,2R)-2-[5-Chloro-2-(1-ethyl-6-methoxy-2-oxo-2,3,4,5-tetrahydro-1H-benzo[b]azepin-7-ylamino)-pyrimidin-4-ylamino]-cyclohexyl}-N-methyl-methanesulfonamide] are above 10000 nM and 100 to 1000 nM.
On the same counts, the results for `CN1C(=O)CCC(C)(C)c2cc(Nc3ncc(Cl)c(N[C@@H]4CCCC[C@H]4N(C)S(C)(=O)=O)n3)ccc21` [Example 1680, N-{(1R,2R)-2-[5-Chloro-2-(1,5,5-trimethyl-2-oxo-2,3,4,5-tetrahydro-1H-benzo[b]azepin-7-ylamino)-pyrimidin-4-ylamino]-cyclohexyl}-N-methyl-methanesulfonamide] are 100 to 1000 nM and below 100 nM.
`CN(CCC#N)C(=O)c1ccccc1Nc1nc(Nc2ccc3c(c2)CCCC(=O)N3C)ncc1Cl` [Example 1682, 2-[5-Chloro-2-(1-methyl-2-oxo-2,3,4,5-tetrahydro-1H-benzo[b]azepin-7-ylamino)-pyrimidin-4-ylamino]-N-(2-cyano-ethyl)-N-methyl-benzamide]: the IC50 in assay [1] was 100 to 1000 nM; in assay [2], below 100 nM.
Regarding `CS(=O)(=O)N[C@@H]1CCCC[C@H]1Nc1nc(Nc2cc(F)cc3c2OCCNC3=O)ncc1Cl` [Example 1683, N-{(1R,2R)-2-[5-Chloro-2-(7-fluoro-5-oxo-2,3,4,5-tetrahydro-benzo[f][1,4]oxazepin-9-ylamino)-pyrimidin-4-ylamino]-cyclohexyl}-methanesulfonamide], the values for the IC50 in assay [1] and in assay [2] were above 10000 nM and 100 to 1000 nM, respectively.
On the same counts, the results for `COc1cc(N2CCOCC2)ccc1Nc1nc(Nc2cc(F)cc3c2OCCNC3=O)ncc1Cl` [Example 1684, 9-[5-Chloro-4-(2-methoxy-4-morpholin-4-yl-phenylamino)-pyrimidin-2-ylamino]-7-fluoro-3,4-dihydro-2H-benzo[f][1,4]oxazepin-5-one] are above 10000 nM and below 100 nM.
In the same order, the values of `COCCN1CCc2ccc(Nc3ncc(Cl)c(Nc4ccccc4S(=O)(=O)C(C)C)n3)cc2CC1` [Example 1685, 5-Chloro-N*2*-[3-(2-methoxy-ethyl)-2,3,4,5-tetrahydro-1H-benzo[d]azepin-7-yl]-N*4*-[2-(propane-2-sulfonyl)-phenyl]-pyrimidine-2,4-diamine] are 100 to 1000 nM and below 100 nM.
As for `COCCN1CCc2ccc(Nc3ncc(Cl)c(Nc4ccccc4S(=O)(=O)N(C)C)n3)cc2CC1` [Example 1686, 2-{5-Chloro-2-[3-(2-methoxy-ethyl)-2,3,4,5-tetrahydro-1H-benzo[d]azepin-7-ylamino]-pyrimidin-4-ylamino}-N,N-dimethyl-benzenesulfonamide], the IC50 in assay [1] is 100 to 1000 nM; in assay [2], below 100 nM.
For the compound `CCN1CCCOc2cc(Nc3ncc(Cl)c(N[C@@H]4CCCC[C@H]4NS(C)(=O)=O)n3)c(F)cc21` [Example 1687, N-{(1R,2R)-2-[5-Chloro-2-(9-ethyl-2-fluoro-6,7,8,9-tetrahydro-5-oxa-9-aza-benzocyclohepten-3-ylamino)-pyrimidin-4-ylamino]-cyclohexyl}-methanesulfonamide], the IC50 is 1000 to 10000 nM in assay [1] and below 100 nM in assay [2].
On the same counts, the results for `CCN1CCCOc2cc(Nc3ncc(Cl)c(Nc4ccc(N5CCOCC5)cc4OC)n3)c(F)cc21` [Example 1688, 5-Chloro-N*2*-(9-ethyl-2-fluoro-6,7,8,9-tetrahydro-5-oxa-9-aza-benzocyclohepten-3-yl)-N*4*-(2-methoxy-4-morpholin-4-yl-phenyl)-pyrimidine-2,4-diamine] are above 10000 nM and 100 to 1000 nM.
`COCCN1CCc2ccc(Nc3ncc(Cl)c(Nc4ccc(N5CCOCC5)cc4OCCC#N)n3)cc2CC1` [Example 1689, 3-(2-{5-Chloro-2-[3-(2-methoxy-ethyl)-2,3,4,5-tetrahydro-1H-benzo[d]azepin-7-ylamino]-pyrimidin-4-ylamino}-5-morpholin-4-yl-phenoxy)-propionitrile]: the IC50 in assay [1] was 1000 to 10000 nM; in assay [2] it was below 100 nM.
In the same order, the values of `CC1(C)CCC(=O)Nc2cc(Nc3ncc(Cl)c(Nc4ccc(N5CCOCC5)cc4OCCC#N)n3)ccc21` [Example 1690, 3-{2-[5-Chloro-2-(5,5-dimethyl-2-oxo-2,3,4,5-tetrahydro-1H-benzo[b]azepin-8-ylamino)-pyrimidin-4-ylamino]-5-morpholin-4-yl-phenoxy}-propionitrile] are 1000 to 10000 nM and below 100 nM.

Values taken from US8148391B2 (Cephalon, Inc., priority 2006, dated 2012).
